The results in this text go back to patent US20240246960A1 (adMare Therapeutics Society, priority 2021, published 2024).

pEC50: −log10 of the molar value. Like-named read-outs stand apart in the source and are kept apart here.

Data set [1] concerns the target T1, pDNA-PK ser2056 induction in FaDU spheroids (Homo sapiens, UniProt P78527).
T1 construct: host or cells: FaDu
Briefly: Multicellular tumour spheroid + radiation, pDNA-PK inhibition, FaDU. In kind it is cell-based. Conditions: 20 Gy. An outline of the steps: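 HCT116 or FaDU spheroids (~0.5 mm) in MEM/10% FBS/10 mM glucose, 20% O2, 5% CO2, 37 °C, stirred, irradiated with 20 Gy alongside compound serially diluted from 10 μM to 3.5 nM. Cryosections taken 2 h post-radiation, immunostained for pDNA-PK ser2056; EC50 is concentration halving pDNA-PK induction. Survival endpoint: 8 Gy, dissociation at 3 h, colony formation.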

Data set [2] can be described thus: Hepatocyte stability assay, human hepatocytes. In kind it is in vitro ADME. The settings on record: for hepatocyte CLint at 1 uM: both sexes, human, cryopreserved hepatocytes, pH 7.3, 0.7 million cells per mL, 1 uM compound. An outline of the steps:
(§1)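 Pooled cryopreserved hepatocytes (male CD-1 mouse, or mixed-gender human donors; ≥10 each) at 0.7 million viable cells/mL in Krebs-Henseleit buffer pH 7.3, with 1 uM compound (≤0.01% DMSO). Incubated up to 2 h at 37 °C/5% CO2, quenched with acetonitrile; parent compound followed by HPLC-MS/MS peak area.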

The nature of data set [3]: Microsomal stability assay, human liver microsomes. In kind it is in vitro ADME. The settings on record: for microsomal CLint at 0.1 uM: both sexes, human, liver microsomes, pH 7.4, 0.1 mg/mL microsomes, 0.1 uM compound. The procedure: Samples were then mixed and centrifuged. Supernatants were used for HPLC-MS/MS analysis. […] Peak areas corresponding to the test compound were recorded.

Data set [4] is described as follows: Microsomal stability assay, mouse liver microsomes. The settings on record: for microsomal CLint at 0.1 uM: male, CD-1, mouse, liver microsomes, pH 7.4, Microsomal Stability Mouse Clint, 0.1 mg/mL microsomes, 0.1 uM compound. For orientation: Liver microsomes are vesicles of endoplasmic reticulum, rich in cytochrome P450 enzymes.
Experimental: Mouse liver microsomes were obtained from a pool of 250 or more male CD-1 mice. […] Final microsomal concentration was 0.1 mg/mL and test compound concentration was 0.1 uM with a maximum of 0.01% DMSO. The test compound was pre-incubated with pooled liver microsomes in phosphate buffer (pH 7.4) for 5 min in a 37° C. shaking water bath. The reaction was initiated by adding NADPH-generating system and incubated for 0, 15, 30, 45, and 60 min. The reaction was stopped by transferring the incubation mixture to acetonitrile/methanol. Samples were then mixed and centrifuged. Supernatants were used for HPLC-MS/MS analysis. The HPLC system consisted of a binary LC pump with autosampler, a C-18 column, and a gradient. Peak areas corresponding to the test compound were recorded. The compound remaining was calculated by comparing the peak area at each time point to time zero. The half-life was calculated from the slope of the initial linear range of the logarithmic curve of compound remaining (%) vs. time, assuming first order kinetics. In addition, the intrinsic clearance (Clint) was calculated from the half-life.
A short description of data set [5]: Hepatocyte stability assay, mouse hepatocytes. In kind it is in vitro ADME. Conditions: for hepatocyte CLint at 1 uM: male, CD-1, mouse, cryopreserved hepatocytes, pH 7.3, 0.7 million cells per mL, 1 uM compound. The procedure, abridged: as §1
The subject of another data set is HCT116 spheroids. Briefly: Spheroid + radiation colony forming cell survival assay (SF), HCT116. In kind it is cell-based. Conditions: 8 Gy. The procedure, abridged:
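HCT116 spheroids (300-500 µm, 5-10/well) at 5% O2, 5% CO2, pre-incubated 1 hour with compound (5 μM to 10 nM), irradiated 8 Gy, then 3 hrs further with drug. Dissociated cells plated; colonies counted after 4-7 days. EC50 is concentration increasing cell kill 50% over radiation alone.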

Data set [6] concerns the target T2, pDNA-PK ser2056 induction in HCT116 spheroids (Homo sapiens, UniProt P78527).
T2 construct: endogenous in cells; host or cells: HCT116 multicellular tumour spheroids
Put plainly: Multicellular tumour spheroid + radiation, pDNA-PK inhibition, HCT116. In kind it is cell-based. Conditions: 20 Gy. An outline of the steps:
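EC50 (μM) is concentration halving radiation-induced pDNA-PK ser2056, scored by fluorescent immunostaining of cryosections 2 h after 20 Gy. HCT116 tumour spheroids (~0.5 mm, stirred, 20% O2/5% CO2, 37 °C) exposed to serial dilutions from 10 or 5 μM to 3.5 nM starting 1 h before irradiation.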

[7] abbreviates: Example 8, spheroid, read-out: Cell line: FaDU Immunohistochemical endpoint pDNA-PK inhibition EC50.
The mark [8] stands for this setting: Example 9 Study 2, 20% O2, read-out: Spheroid Cell line: FaDU Immunohistochemical endpoint pDNA-PK inhibition EC50.
[9] abbreviates: Example 8, spheroid, read-out: Cell line: HCT116 Colony forming endpoint Surviving Fraction EC50.
[10] abbreviates: Example 9 Study 2, read-out: Spheroid Cell line: HCT116 Colony forming endpoint Surviving Fraction EC50.
Where [11] appears, read: Example 7, spheroid, cell line HCT115 [sic], 20% O2, read-out: EC50 (pDNA-PK inhibition, immunohistochemical endpoint).
The mark [12] stands for this setting: Example 8, spheroid, read-out: Cell line: HCT116 Immunohistochemical endpoint pDNA-PK inhibition EC50.
The mark [13] stands for this setting: Example 9 Study 2, 20% O2, read-out: Spheroid Cell line: HCT116 Immunohistochemical endpoint pDNA-PK inhibition EC50.

For orientation: pEC50 means the negative decadic logarithm of the EC50, by convention in mol/L. A word on the hepatocyte CLint: it is a measure of how fast metabolising enzymes remove a compound, apart from limits set by blood flow. A low value points to slow turnover. One may read the microsomal CLint as a measure of how fast metabolising enzymes remove a compound, apart from limits set by blood flow.

As to `c1cnc(N[C@H]2CC[C@@H](Oc3nc(N4CCOCC4)cc4ncccc34)CC2)nc1` [Compound 20a, N-((1s,4s)-4-((7-Morpholino-1,6-naphthyridin-5-yl)oxy)cyclohexyl)pyrimidin-2-amine], the pEC50 in data set [1] (setting [7]) was 6.00 to 6.30; in data set [1] (setting [8]) it was 6.00 to 6.30; in the data set on HCT116 spheroids (setting [9]), 6.30 to 8.00; in the data set on HCT116 spheroids (setting [10]), 6.30 to 8.00; in data set [6] (setting [11]), 6.00 to 6.30; in data set [6] (setting [12]), 6.00 to 6.30. In data set [6] (setting [13]), the pEC50 was 6.00 to 6.30. Further, the “Hepatocyte Stability (human) % rem. 120 min” value in data set [2] was “F (% remaining = 25-50%)”. In addition, the intrinsic metabolic clearance (hepatocyte CLint) at 1 uM in data set [2] and in data set [5] was greater than 8.2 µL/min/1e6 cells throughout. The “Microsomal Stability (human) % rem. 60 min” value in data set [3] is “F (% remaining = 25-50%)”. Also, the microsomal CLint at 0.1 uM in data set [3] and in data set [4] was greater than 116 µL/min/mg each time. The “Microsomal Stability (mouse) % rem. 60 min” value in data set [4] is on record as “E (% remaining = 0-25%)”. In addition, the “Hepatocyte Stability (mouse) % rem. 120 min” value in data set [5] was “F (% remaining = 25-50%)”.

For the molecule `O=C(N[C@H]1CC[C@@H](Oc2nc(N3CCOCC3)cc3ncccc23)CC1)c1cncnc1` [Compound 122, N-((1s,4s)-4-((7-Morpholino-1,6-naphthyridin-5-yl)oxy)cyclohexyl)pyrimidine-5-carboxamide], the pEC50 in data set [1] (setting [7]) was 6.00 to 6.30; in data set [1] (setting [8]), 6.00 to 6.30; in the data set with HCT116 spheroids (setting [9]), 6.00 to 6.30; with HCT116 spheroids (setting [10]), 6.00 to 6.30; in data set [6] (setting [11]), 5.00 to 6.00; in data set [6] (setting [12]) it was 5.00 to 6.00. For the same molecule, the pEC50 in data set [6] (setting [13]) was 5.00 to 6.00. Also, the “Microsomal Stability (mouse) % rem. 60 min” value in data set [4] is reported as “G (% remaining = 50-75%)”. In data set [4], this molecule came in with a microsomal CLint at 0.1 uM greater than 116 µL/min/mg. In addition, the “Hepatocyte Stability (mouse) % rem. 120 min” value in data set [5] is reported as “E (% remaining = 0-25%)”. In data set [5], the intrinsic metabolic clearance (hepatocyte CLint) at 1 uM was greater than 8.2 µL/min/1e6 cells.

As for `O=C(N[C@H]1CC[C@@H](Oc2nc(N3CCOCC3)cc3ncccc23)CC1)c1ncccn1` [Compound 123, N-((1s,4s)-4-((7-Morpholino-1,6-naphthyridin-5-yl)oxy)cyclohexyl)pyrimidine-2-carboxamide], the negative logarithm of the EC50 (pEC50) is 6.30 to 8.00 in data set [1] (setting [7]); 6.30 to 8.00 in data set [1] (setting [8]); 6.30 to 8.00 with HCT116 spheroids (setting [9]); 6.30 to 8.00 in the data set with HCT116 spheroids (setting [10]); 6.00 to 6.30 in data set [6] (setting [11]); 6.00 to 6.30 in data set [6] (setting [12]). Further, the negative-log EC50 (pEC50) in data set [6] (setting [13]) was 6.00 to 6.30. Besides, in data set [2], the “Hepatocyte Stability (human) % rem. 120 min” value was “H (% remaining = 75-100%)”. Besides, the intrinsic clearance (hepatocyte CLint) at 1 uM in data set [2] and in data set [5] was less than 8.2 µL/min/1e6 cells throughout. For the same molecule, the “Microsomal Stability (human) % rem. 60 min” value in data set [3] is “H (% remaining = 75-100%)”. Also, the microsomal CLint at 0.1 uM in data set [3] and in data set [4] was less than 116 µL/min/mg each time. Besides, the “Microsomal Stability (mouse) % rem. 60 min” value in data set [4] is “G (% remaining = 50-75%)”. In addition, the “Hepatocyte Stability (mouse) % rem. 120 min” value in data set [5] is listed as “G (% remaining = 50-75%)”.

As for `O=C(N[C@H]1CC[C@@H](Oc2nc(N3CCOCC3)cc3ncccc23)CC1)c1ccco1` [Compound 132, N-((1s,4s)-4-((7-Morpholino-1,6-naphthyridin-5-yl)oxy)cyclohexyl)furan-2-carboxamide], the pEC50 (in data set [1] (setting [7]); in data set [1] (setting [8]); in the data set on HCT116 spheroids (setting [9]); with HCT116 spheroids (setting [10]); in data set [6] (setting [11]); in data set [6] (setting [12])) was 6.30 to 8.00 in each case. The pEC50 in data set [6] (setting [13]) is 6.30 to 8.00. Also, the “Microsomal Stability (mouse) % rem. 60 min” value in data set [4] was “E (% remaining = 0-25%)”. The same molecule showed a microsomal CLint at 0.1 uM in data set [4] greater than 116 µL/min/mg.
